Assay results from US8480995B2, “Use of sodium selenosulfate for supplementing selenium and enhancing the therapeutic efficacy of chemotherapy agents, and a rapid process for preparing sodium selenosulfate” (University of Science and Technology of China, priority 2007, dated 2013).

Key:
hepatoma H22 cell = assay: Treatment of mice bearing H22 ascites with cisplatin with or without sodium selenosulfate; format: in vivo; conditions: for Survival time of dead mice: mean±SD
Procedure: Animals: Se-sufficient male Kunming mice (body weight: 20-23 g) were purchased from Shanghai Laboratory Animal Center, Chinese Academy of Sciences. Drugs Administration: 48 mice were divided randomly into 6 groups with 8 mice in each group. Each mouse was inoculated intraperitoneally with hepatoma H22 cell suspension (20×10^6 cells). The groups were classified into 3 cisplatin groups, 2 cisplatin plus Se-supplementing groups (the groups administrated with 8 and 10 mg/kg doses of cisplatin were treated with 0.6 and 0.75 mg Se/kg doses of sodium selenosulfate, respectively) and 1 control group in terms of the administration doses (5, 8 and 10 mg/kg) of cisplatin. The experiments were carried out with one week as a cycle. The experiments with cisplatin doses of 5 and 8 mg/kg were carried out for total 4 cycles, and those with cisplatin dose of 10 mg/kg were performed for total 3 cycles. From the first day of each cycle, the mice in cisplatin groups was intraperitoneally injected with the corresponding concentrations of cisplatin, and the mice in cisplatin plus Se-supplementing groups were injected intraperitoneally with the corresponding sodium selenosulfate doses of 0.6 and 0.75 mg Se/kg respectively 4 hours before the intraperitoneal injection of cisplatin. The treatment was performed for 5 consecutive days. The first cisplatin chemotherapy started at 48 hours after the inoculation of tumor cells. The animal status was recorded and the development of malignant ascites was observed. Statistical analysis: Data were expressed as mean±SD. The differences between the groups were examined using ANOVA. A p value less than 0.05 was considered statistically significant.

[1] = tested on: Se-sufficient male Kunming mice; assay: Toxicity to normal tissues in Se-sufficient mice, i.p. once daily for 14 days; format: in vivo; conditions: for mortality: FIG. 3; for hepatic tissue slices with hydropic or fatty degeneration / serum ALT and AST activity (hepatotoxicity): 2 mg Se/kg, 14 days; for hepatic tissue slices with hydropic or fatty degeneration: HE stain, selenite moderate (FIG. 5), selenosulfate slight (FIG. 6); for serum ALT and AST activity (hepatotoxicity): FIG. 4; for suppression of the growth of the mice (body weight): 2 and 3 mg Se/kg, same Se levels compared, FIG. 2
Procedure: Animals: Se-sufficient male Kunming mice (body weight: 23±1 g) were purchased from the Shanghai Laboratory Animal Center, Chinese Academy of Sciences. Drugs Administration: 50 mice were randomly divided into 5 groups with 10 mice in each group. The mice in the control group were injected intraperitoneally with normal saline, and the other groups were injected with sodium selenite (2 groups) and sodium selenosulfate (2 groups) respectively at 2 and 3 mg Se/kg once daily for 14 consecutive days. The mice in low dosage groups were sacrificed 24 hours after the last Se administration. Animal status: The body weight and dead status of the mice were recorded every day. Biochemical parameters: Blood was sampled from ophthalmic veins for determining serum ALT activity and AST activity. Pathology: Liver was excised for the determination. The slice was dyed by using HE. Statistical analysis: Data were expressed as mean±SD. The differences between the groups were examined using ANOVA. A p value less than 0.05 was considered statistically significant.

[2] = tested on: glutathione S-transferase (GST); assay: Se-supplementing effect in Se-deficient mice: GST activity in liver; format: in vivo; conditions: relative to control 1.00 (control 4071.4 unit/mg protein), mean±SD
Procedure: (§1) It has been reported that high doses of sodium selenite can reduce the symptom of severely ill patient and enhance the therapeutic efficacy of chemotherapy agents for cancers. It remains unknown whether there are differences regarding the Se-supplementing effect between sodium selenosulfate and sodium selenite at pharmacologic doses. In this example, Se-deficient mice were intraperitoneally injected with sodium selenite and sodium selenosulfate at doses of 0.5 and 1 mg Se/kg for a week. The enzyme activity and selenium were measured to compare the Se-supplementing effect between the two selenium compounds.
(§2) Animals: Se-deficient male Kunming mice (body weight: 20-23 g) were purchased from the animal center of Anhui Medical University. Drugs Administration: 35 mice were randomly divided into 5 groups with 7 mice in each group. The mice in the control group were injected with normal saline, and those in other groups were injected respectively with different doses of sodium selenite and sodium selenosulfate (0.5 and 1 mg Se/kg) for 7 consecutive days. Biochemical parameters: 24 hours after the last Se administration, blood was sampled from ophthalmic veins to obtain serum by centrifugation, and then the Se form and glutathione peroxidase (GPx) activity therein were determined. Meanwhile, liver and kidney were excised and stored at −30° C., and a part of them were used to determine Se. A part of livers and kidneys were homogenized and centrifuged to obtain supernatant, and then GPx activity and glutathione S-transferase (GST) activity in livers were determined. Statistical analysis: Data were expressed as mean±SD. The differences between the groups were examined using ANOVA. A p value less than 0.05 was considered statistically significant.

[3] = tested on: glutathione peroxidase (GPx); assay: Se-supplementing effect in Se-deficient mice: GPx activity in serum, liver and kidney; format: in vivo; conditions: mean±SD; for Liver GPx: relative to control 1.00 (control 88.5 unit/mg protein); for Kidney GPx: relative to control 1.00 (control 142.8 unit/mg protein); for Serum GPx: relative to control 1.00 (control 525.5 unit/mL serum)
Procedure: as §1, §2

[4] = tested on: Human hepatoma cells (HepG2); assay: Cell proliferation assay (MTT, day 0-6); format: cell-based; conditions: 12.5 μM Se, day 0-6, MTT; FIG. 7B
Procedure: (§3) Cell culture: Human hepatoma cells (HepG2) and human colorectal cancer cells (CaCo2) were cultivated at 37° C. under 5% CO2 by using EMEM cell culture media containing 10% Fetal Bovine serum. Cell killing assay: the tumor cells were added into a 96-well plate with a density of 5000 cells/well for 24 hours, and then the culture media were changed to those with different Se concentrations. At 72 hours, the cell numbers were determined by MTT protocol. Each treatment was conducted in 3 parallels, and the data were expressed by percent relative to cell numbers when no Se was added. Cell proliferation assay: HepG2 or CaCo2 cells were added into a 96-well plate with a density of 1000 cells/well for 24 hours, and then the culture media were changed to those with 12.5 μM Se. The day was defined as day 0. The cell numbers were determined by MTT protocol on day 0, 2, 4 and 6, respectively. Each treatment was conducted with 8 parallels, and the data were expressed with percent relative to the cell numbers on day 0. MTT assay: Each well was added with 20 μL MTT (5 mg/mL) 4 hours prior to the end of culture. After the culture was ended, the supernatant was discarded, and the formazan particles were dissolved in HCl-isopropanol (10 μL/well). The readings were recorded at 595 nm on a microplate reader.

[5] = tested on: Human hepatoma cells (HepG2); assay: Cell killing assay (MTT, 72 hours); format: cell-based; conditions: FIG. 7A
Procedure: as §3

[6] = Se-supplementing effect in Se-deficient mice: Se level in serum, liver and kidney; format: in vivo; conditions: mean±SD; for Serum Se: relative to control 1.00 (control 0.07 μg/mL serum); for Liver Se: relative to control 1.00 (control 0.15 μg/g liver); for Kidney Se: relative to control 1.00 (control 0.44 μg/g kidney)
Procedure: as §1, §2

[7] = cisplatin 5 mg/kg i.p., 4 cycles
[8] = cisplatin 8 mg/kg i.p., 4 cycles
[9] = cisplatin 10 mg/kg i.p., 3 cycles
[10] = 2 mg Se/kg i.p. once daily 14 days
[11] = 3 mg Se/kg i.p. once daily 14 days

N.N.[Cl][Pt][Cl] [Cisplatin, cisplatin]
suppression of the development of malignant ascites (hepatoma H22 cell; cisplatin 5 mg/kg): could not suppress the rapid development of malignant ascites | Cure rate (hepatoma H22 cell; [7]): 0% | Death rate (hepatoma H22 cell; [7]): 100% | Survival time of dead mice (hepatoma H22 cell; [7]): 20 ± 7 days | Cure rate (hepatoma H22 cell; [8]): 0% | Death rate (hepatoma H22 cell; [8]): 100% | Survival time of dead mice (hepatoma H22 cell; [8]): 31 ± 12 days | Cure rate (hepatoma H22 cell; [9]): 25% | Death rate (hepatoma H22 cell; [9]): 75% | Survival time of dead mice (hepatoma H22 cell; [9]): 21 ± 9 days | suppression of the development of malignant ascites (hepatoma H22 cell; cisplatin 8 and 10 mg/kg): could efficiently suppress the development of malignant ascites

O=[Se](O)O [Sodium selenite, sodium selenite]
mortality [1, 10]: 20% | hepatic tissue slices with hydropic or fatty degeneration [1]: up to 80% | serum ALT and AST activity (hepatotoxicity) [1]: made ALT and AST increased significantly | mortality [1, 11]: 90% | suppression of the growth of the mice (body weight) [1]: significantly stronger than that of sodium selenosulfate | Liver GST ([2]; 0.5 mg/kg i.p. 7 days): 1.64 ± 0.23 | Liver GST ([2]; 1.0 mg/kg i.p. 7 days): 2.44 ± 0.14 | Liver GPx ([3]; 0.5 mg/kg i.p. 7 days): 19.8 ± 0.08 | Kidney GPx ([3]; 0.5 mg/kg i.p. 7 days): 8.74 ± 0.14 | Serum GPx ([3]; 0.5 mg/kg i.p. 7 days): 2.97 ± 0.37 | Liver GPx ([3]; 1.0 mg/kg i.p. 7 days): 22.2 ± 0.10 | Kidney GPx ([3]; 1.0 mg/kg i.p. 7 days): 10.2 ± 0.14 | Serum GPx ([3]; 1.0 mg/kg i.p. 7 days): 4.18 ± 0.26

O=S(=O)([O-])[Se-].[Na+].[Na+] [Sodium selenosulfate, sodium selenosulfate]
suppression of proliferation of HepG2 cells [4]: fully suppressed the proliferation of HepG2 cells | mortality [1, 10]: all the mice treated with sodium selenosulfate survived | hepatic tissue slices with hydropic or fatty degeneration [1]: 20% | serum ALT and AST activity (hepatotoxicity) [1]: such phenomenon was not found | mortality [1, 11]: 20% | suppression of the growth of the mice (body weight) [1]: could suppress the growth of the mice as compared with the control | Liver GST ([2]; 0.5 mg/kg i.p. 7 days): 1.47 ± 0.29 | Liver GST ([2]; 1.0 mg/kg i.p. 7 days): 2.69 ± 0.23 | Liver GPx ([3]; 0.5 mg/kg i.p. 7 days): 18.8 ± 0.19 | Kidney GPx ([3]; 0.5 mg/kg i.p. 7 days): 7.74 ± 0.19 | Serum GPx ([3]; 0.5 mg/kg i.p. 7 days): 3.10 ± 0.25 | Liver GPx ([3]; 1.0 mg/kg i.p. 7 days): 22.2 ± 0.16 | Kidney GPx ([3]; 1.0 mg/kg i.p. 7 days): 9.09 ± 0.18 | Serum GPx ([3]; 1.0 mg/kg i.p. 7 days): 4.41 ± 0.24 | killing effect on HepG2 cells [5]: dose-dependent profile on killing HepG2 cells at levels of 6-18 μM | Serum Se ([6]; 0.5 mg/kg i.p. 7 days): 5.69 ± 0.13 | Liver Se ([6]; 0.5 mg/kg i.p. 7 days): 11.2 ± 0.09 | Kidney Se ([6]; 0.5 mg/kg i.p. 7 days): 2.85 ± 0.10 | Serum Se ([6]; 1.0 mg/kg i.p. 7 days): 5.24 ± 0.39 | Liver Se ([6]; 1.0 mg/kg i.p. 7 days): 15.2 ± 0.09 | Kidney Se ([6]; 1.0 mg/kg i.p. 7 days): 3.90 ± 0.14
